Common to all, as to assay type: cell-based
Assay [1] concerns CD34^+ hematopoietic stem/progenitor cells. Put plainly: Hematologic toxicity of compounds (CD34+ HSC viability, CTG). Particulars: 240 h; cytotoxic drugs; treatment for 10 days; CTG cell viability. The protocol: Experimental objective: The effects of cytotoxic drugs on the differentiation and development of CD34^+ hematopoietic stem/progenitor cells into the megakaryocytic lineage were investigated, so as to evaluate their potential hematologic toxicity of causing thrombocytopenia.
Experimental design: After resuscitation, bone marrow-mobilized peripheral blood-derived HSCs were seeded at 2000 cells/well/180 µL in an ultra-low attachment 96-well round-bottom plate and stabilized for 4 h. The cells were treated with compounds by performing a 5-fold gradient dilution starting from the highest dose of 1 µM, resulting in a total of 9 concentration points, and this treatment was maintained continuously for 10 days. Cell viability was detected using the CTG reagent (CellTiter-Glo luminescent cell viability detection kit, manufacturer: Promega, Cat. No.: G7571). Table 2. Hematologic toxicity test results of cytotoxic drugs

The subject of assay [2] is human breast cancer cells KPL-4. Put plainly: Cytotoxicity test for compounds (CellTiter-Glo cell proliferation inhibition). Particulars: Homo sapiens, KPL4, 72 h; 3 days of incubation; CellTiter-Glo; read-out: KPL-4/IC50. The protocol:
(§1) Biological Test Example 1: Cytotoxicity Test for Compounds
(§2) • 96-well clear flat-bottom white plate (Corning, #3610) • RPMI1640 culture medium (Gibco, #A10491-01) • Fetal Bovine Serum (Sigma-Aldrich, #F8687-500ML) • CellTiter-Glo® Luminescent Cell Viability Assay (Promega, # G7572/G7571)
(§3) Human gastric cancer cells NCI-N87 (ATCC, Cat. No.: CRL-5822), human breast cancer cells MDA-MB-468 (Cell Bank of the Committee for Type Culture Collection of the Chinese Academy of Sciences, Cat. No.: TCHu136), and human breast cancer cells KPL-4 (Nanjing Cobioer Biosciences Co., Ltd., Cat. No.: CBP60379) were washed with PBS and digested with 0.25% Trypsin-EDTA trypsin for about 3-10 min. The digestion was terminated with a complete cell culture medium. The cells were centrifuged at 1000 rpm for 5 min, and the supernatant was discarded. The cells were resuspended in a complete cell culture medium. The cell number was counted using a cell counter, and the cells were adjusted to the desired density. 90.0 µL of the cell suspension was added to each well at 3000 cells/well. The cell plate was incubated in a cell incubator at 37°C with 5% CO2 overnight.
(§4) In the experiment, a DMSO control group and test sample groups were set. The cell plate was removed from the incubator to observe cell adherence. After the cells adhered, 10.00 µL of the sample (starting from a final concentration of 10 µM, 5-fold dilution, 9 concentrations) was added to each well. After the mixture was gently shaken uniformly, the plate was incubated in the incubator.
(§5) After 3 days of incubation, 100.0 µL/well of CellTiter-Glo™ (Promega, Cat. No.: G7572/G7571) working solution was added. The plate was shaken on a thermostatic shaker to lyse the cells. After 10 min, the plate was read on a microplate reader.
(§6) Data analysis: GraphPad Prism 8.0 software was used to plot a graph with the Log value of the sample concentration as the abscissa and the Inhibition% as the ordinate. The data were analyzed by Nonlinear regression (curve fit) to obtain the IC50 value of each test sample. Table 1. Inhibition activity of compounds of the present disclosure on cell proliferation
A general note: ATP-based viability assays read luminescence as a measure of living cells.

Assay [3] has as its system Human gastric cancer cells NCI-N87. The description is as above. The conditions noted are these: Homo sapiens, NCI-N87, 72 h, 3 days of incubation; CellTiter-Glo; read-out: NCI-87/IC50. As to the method:
as §1, §2, §3, §4, §5, §6

Assay [4] concerns human breast cancer cells MDA-MB-468. Described as above. Particulars: Homo sapiens, MDA-MB-468, 72 h, 3 days of incubation; CellTiter-Glo; read-out: MDA-MD-468/IC50. As to the method: as §1, §2, §3, §4, §5, §6

Molecules are shown by their SMILES. pIC50: −log10 of the molar value.

As for `C#CCN(CCc1cccc(N)c1)C(=O)[C@H](C)[C@@H](OC)[C@@H]1CCCN1C(=O)C[C@@H](OC)[C@H]([C@@H](C)CC)N(C)C(=O)[C@@H](NC(=O)[C@H](C(C)C)N(C)C)C(C)C` [Example 6, (S)-N-((3R,4S,5S)-1-((S)-2-((1R,2R)-3-((3-aminophenethyl)(prop-2-yn-1-yl)amino)-1-methoxy-2-methyl-3-oxopropyl)pyrrolidin-1-yl)-3-methoxy-5-methyl-1-oxoheptan-4-yl)-2-((S)-2-(dimethylamino)-3-methylbutanamido)-N,3-dimethylbutanamide], the pIC50 in assay [1] is 8.40; in assay [2] it was 8.53; in assay [3], 8.41; in assay [4], 7.90.

Take `CC[C@H](C)[C@@H]([C@@H](CC(=O)N1CCC[C@H]1[C@H](OC)[C@@H](C)C(=O)N(CCc1cccc(N)c1)OC)OC)N(C)C(=O)[C@@H](NC(=O)[C@H](C(C)C)N(C)C)C(C)C` [Example 7, (S)-N-((3R,4S,5S)-1-((S)-2-((1R,2R)-3-((3-aminophenethyl)(methoxy)amino)-1-methoxy-2-methyl-3-oxopropyl)pyrrolidin-1-yl)-3-methoxy-5-methyl-1-oxoheptan-4-yl)-2-((S)-2-(dimethylamino)-3-methylbutanamido)-N,3-dimethylbutanamide]: the pIC50 in assay [1] was 9.84; in assay [2], 9.35; in assay [3] it was 9.05; in assay [4], 7.87.

(Values after patent EP4786483A1, “AURISTATIN DERIVATIVE AND ANTIBODY-DRUG CONJUGATE THEREOF” (priority 2023, dated 2025).)
